The text below walks through data of patent publication US20240041042A1, “1-(PYRIDYL)-5-AZINYLPYRAZOLE DERIVATIVES, AND THEIR USE FOR CONTROL OF UNDESIRED PLANT GROWTH” (Bayer Aktiengesellschaft, priority 2020, published 2024).

Structures are written as SMILES. Read-outs that look alike come from different tables or passages of the source.

Common to all, as to format: in vivo
Data set [1] concerns Zea mays (ZEAMX). As to conditions: pre-emergence, 80 g/ha, crop plant compatibility, in comparison to untreated controls. In a few lines: (§1)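 Scoring: visual, % of untreated control, about 3 weeks after a pre-emergence application to the soil surface. Application used WP or EC formulations diluted in water with 0.5% additive at 600 l/ha; dosage levels are marked by suffixes a, b and c.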

Data set [2] concerns Oryza sativa (ORYSA). As to conditions: pre-emergence, crop plant compatibility, in comparison to untreated controls. In a few lines: as §1
In data set [3] the test system is Glycine max (GLXMA). As to conditions: pre-emergence, 80 g/ha, crop plant compatibility, in comparison to untreated controls. The method in brief: as §1
In data set [4] the test system is Zea mays (ZEAMX). As to conditions: crop plant compatibility, effect vs untreated controls. The method in brief: (§2)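 One-leaf-stage crops (2–3 wk post-sowing, sandy loam, greenhouse) sprayed on green parts; 0.5% additive, 600 l/ha water. Rated by eye ~3 wk later, % vs untreated; suffixes a/b/c mark different dosages.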
Data set [5] deals with Triticum aestivum (TRZAS). As to conditions: crop plant compatibility, 80 g/ha, effect vs untreated controls. The method in brief:
as §2

For data set [6], the system named is Oryza sativa (ORYSA). As to conditions: crop plant compatibility, effect in comparison to untreated controls. In a few lines:
as §2

For data set [7], the system named is Amaranthus retroflexus (AMARE). As to the kind of experiment: Pre-emergence herbicidal action against AMARE. Particulars: 320 g/ha, visual scoring after about 3 weeks vs untreated controls. In a few lines: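 Herbicide applied to soil before seedling emergence, at 600 l/ha spray volume with 0.5% additive and rates up to 320 g/ha. Evaluation: visual percentage effect, about 3 weeks later, greenhouse-grown pots compared with untreated ones.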

Data set [8] concerns Amaranthus retroflexus (AMARE). As to the kind of experiment: Post-emergence herbicidal action against AMARE. As to conditions: 320 g/ha, visual rating about 3 weeks after treatment. The method in brief:
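Values are percent visual activity (0% like control, 100% plants dead) after about 3 weeks in the greenhouse. Treatment: post-emergence spray at one-leaf stage, 600 l/ha spray volume, 0.5% additive, doses 320 g/ha or lower.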

`C[C@H](NC(=O)COc1nn(-c2ccnc(F)c2)c(-c2ccc(F)nc2)c1Br)C(=O)O` [III-25]: in data set [1], the “Pre-emergence action against ZEAMX in %” value amounted to 20%. The “Pre-emergence action against ORYSA in %” value in data set [2] (80 g/ha) and in data set [2] (320 g/ha) was 0% each time. Further, the “Pre-emergence action against GLXMA in %” value in data set [3] is given as 0%. Moreover, the “Post-emergence action against ZEAMX in %” value in data set [4] (80 g/ha) and in data set [4] (320 g/ha) was 0% throughout. For the same compound, in data set [5], the “Post-emergence action against TRZAS in %” value turned out to be 0%. Also, the “Post-emergence action against ORYSA in %” value in data set [6] (80 g/ha) and in data set [6] (320 g/ha) was 0% in each case. Also, the “Pre-emergence action against AMARE in %” value in data set [7] is 80%. For the same compound, the “Post-emergence action against AMARE in %” value in data set [8] was determined as 80%.
